Marks after values point to notes of the source that are not given here.
Legend:
[1] = target: T1, rat liver glucose-6-phosphate dehydrogenase (DG-6-P) (Rattus norvegicus, UniProt P05370); assay: Effect on DG-6-P activity in 5.6-fold purified rat liver enzyme; format: biochemical; details: for remaining activity at 5 µM / remaining activity at 25 µM: read-out: % of control (DG-6-P activity)
T1 construct: an additional enzyme purification procedure was performed; from tissue; host or cells: rat liver (5.6-fold purified enzyme preparation)
Source text: (§1) Rat liver glycogen phosphorylase, rat liver and skeletal muscle hexokinase, rat liver glucose-6-phosphate dehydrogenase (DG-6-P), rat liver and skeletal muscle phosphofructokinase were selected as potential targets for in vitro testing of the hypoglycemic activity of lupane triterpenoids.
Surprising results were obtained by examining the effect of lupane triterpenoids on glucose-6-phosphate activity. […] In both cases, the observed effects were dose-dependent. […] Table 1. Effect of lupane triterpenoids on DG-6-P activity in 5.6-fold purified rat liver

Wistar rats [2] = assay: Blood glucose after glucose load in rats with alloxan-induced diabetes; format: in vivo; details: 100 mg/kg; for Glucose concentration: glucose load 4 g/kg 4 hours after drug; for time after glucose administration at which glucose indicators normalized: alloxan diabetes, glucose load 4 g/kg
Experimental: The study was conducted on Wistar rats weighing 220-250 g. All animals were subjected to two weeks of observation prior to the experiment to exclude infection. Rats were housed in standard cages, 5 individuals in each. The animals stayed in a room with a temperature of 22±2°C, air humidity 60-70% and in natural lighting (12/12 in a day/night cycle). The animals had free access to water and standard laboratory feed ad libitum.
Diabetes was caused by a single intraperitoneal administration of alloxan at a dose of 170 mg/kg bw. The development of diabetes was observed on the basis of the main symptoms (polydipsia, polyphagia), glycosuria and hyperglycemia. Animals with high glucose levels of at least 14 mmol/L were selected for the experiment.
Animals were randomized into 6 groups of 8 individuals each. The first group, the control group, was formed from healthy animals without diabetes. The control group (healthy animals) received NaCl 1 ml/kg; Group 2. - diabetes mellitus (DM), received NaCl 1 ml/kg; Group 3. - DM + Betulin, at a dose of 100 mg/kg; Group 4. - DM + Lupeol, at a dose of 100 mg/kg; Group 5 - DM + Betulonic acid, at a dose of 100 mg/kg; Group 6 - DM + Betulinic acid, at a dose of 100 mg/kg; Group 7 - DM + Betulin-3,28-diacetate, at a dose of 100 mg/kg.
4 hours after drug administration, all animals intragastrically received a 40% glucose solution at a dose of 4 g/kg. The time of administration is determined in the available literature on its pharmacokinetics - peak plasma levels of lupane triterpenoids in rats are observed 3-4 hours after intragastric administration.
Peripheral blood glucose was determined using a Roche AccuCheck Active meter (USA) before and after glucose administration every 60 minutes for 5 hours. A drop of blood was taken from the tail tip incision.

Wistar rats [3] = assay: Blood glucose in rats with glucose-induced hyperglycemia (OGTT-2 / OGTT-4); format: in vivo; details: compared to control animals
Experimental: To study the effect of betulin, 3,28-diacetate betulin, betulinic acid and lupeol on blood glucose levels in rats with induced hyperglycemia, the animals received 2 hours prior to glucose administration, test substances at doses of 100 or 1000 mg/kg. Hyperglycaemia was caused by oral administration of a 40% glucose solution at a dose of 2 g/kg (OGTT-2) or 4 g/kg (OGTT-4). The study was conducted on Wistar rats weighing 220-250 g. All animals were subjected to two weeks of observation prior to the experiment to exclude infection. Rats were housed in standard cages, 5 individuals in each. […] The animals had free access to water and standard laboratory feed ad libitum. Animals were randomized into 5 groups, 8 individuals each. Hyperglycaemia was caused by administration of a 40% glucose solution at doses of 2 or 4 g/kg. […] Blood glucose was determined with a Roche AccuCheck Active glucometer (USA) before and after glucose administration every 30 minutes for 2 hours and then every 60 minutes for 6 hours.

pancreatic islet β-cells = assay: Insulin secretion by isolated Langerhans islets (enzyme immunoassay); format: cell-based; details: 10 µM, 30 minutes incubation, compared to the control group
Experimental: To study the effect of betulin and betulinic acid on insulin secretion by pancreatic islet β-cells, their solutions in DMSO were incubated with isolated Langerhans islands in concentrations of 10 µM for 30 minutes, after which the insulin content in the incubation medium was determined by enzyme immunoassay.
The strongest reaction was observed after 30 minutes of incubation in the presence of 10 µM lupane triterpenoids (Figure 1).

[4] = target: T2, Rat liver glycogen phosphorylase (Rattus norvegicus, UniProt P09811); assay: Effect on glycogen phosphorylase activity in rat liver homogenates and post-mitochondrial fraction; format: biochemical
T2 construct: from tissue; host or cells: rat liver homogenates and post-mitochondrial fraction
T2 sequence (P09811 1-850): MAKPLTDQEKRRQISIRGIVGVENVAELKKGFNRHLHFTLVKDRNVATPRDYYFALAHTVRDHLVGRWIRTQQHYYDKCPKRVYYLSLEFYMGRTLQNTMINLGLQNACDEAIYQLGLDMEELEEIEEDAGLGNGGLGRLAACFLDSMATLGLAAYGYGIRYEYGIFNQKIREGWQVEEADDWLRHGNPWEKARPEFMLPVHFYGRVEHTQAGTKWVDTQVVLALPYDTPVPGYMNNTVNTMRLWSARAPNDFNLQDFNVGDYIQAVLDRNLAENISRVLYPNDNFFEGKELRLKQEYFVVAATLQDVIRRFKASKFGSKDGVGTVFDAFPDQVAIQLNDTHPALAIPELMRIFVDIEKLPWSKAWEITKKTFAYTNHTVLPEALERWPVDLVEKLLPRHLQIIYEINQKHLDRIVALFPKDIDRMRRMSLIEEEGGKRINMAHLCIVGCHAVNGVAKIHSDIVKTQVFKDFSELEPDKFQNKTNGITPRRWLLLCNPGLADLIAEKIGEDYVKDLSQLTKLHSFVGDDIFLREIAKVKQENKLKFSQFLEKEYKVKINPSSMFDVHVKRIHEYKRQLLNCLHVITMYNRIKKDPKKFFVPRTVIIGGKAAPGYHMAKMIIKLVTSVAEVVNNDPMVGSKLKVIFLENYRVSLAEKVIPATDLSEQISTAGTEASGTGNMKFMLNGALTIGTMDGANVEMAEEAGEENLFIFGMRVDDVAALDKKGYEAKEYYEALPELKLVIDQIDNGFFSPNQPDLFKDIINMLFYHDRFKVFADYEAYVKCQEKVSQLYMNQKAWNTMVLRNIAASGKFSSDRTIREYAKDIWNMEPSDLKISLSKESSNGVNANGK
Source text: as §1

Wistar rats [5] = assay: Pancreatic islet morphometry in rats with alloxan-induced diabetes, 30 days treatment; format: in vivo
Experimental: The possible cytoprotective effect of lupane triterpenoids on the functional state of the pancreas in alloxan-induced diabetes in rats was evaluated. Alloxane was used to induce diabetes, which causes damage to the necrotic islet type pancreatic apparatus due to selective accumulation in β-cells and induction of massive free radical generation. The study was conducted on Wistar rats weighing 220-250 g. All animals were subjected to two weeks of observation prior to the experiment to exclude infection. Rats were housed in standard cages, 5 individuals in each. […] The animals had free access to water and standard laboratory feed ad libitum. Diabetes was caused by a single intraperitoneal administration of alloxan at a dose of 170 mg/kg bw. The development of diabetes was observed on the basis of the main symptoms (polydipsia, polyphagia), glycosuria and hyperglycemia. Animals with high glucose levels of at least 14 mmol/L were selected for the experiment. Animals were randomized into 8 groups of 8 individuals each. The first group, the control group, was formed from healthy animals without diabetes. The control group (healthy animals) received NaCl 1 ml/kg; Group 2 - DM + Lupeol, at a dose of 100 mg/kg; Group 3 - DM + Betulonic acid, at a dose of 100 mg/kg; Group 4 - DM + 3,28-betulin diacetate, at a dose of 100 mg/kg; Group 5 - DM + Betulinic acid, at a dose of 50 mg/kg; Group 6 - DM + Betulinic acid, at a dose of 100 mg/kg; Group 7 - DM + Betulin, at a dose of 50 mg/kg; Group 8 - DM + Betulin, at a dose of 100 mg/kg.

[6] = 50 mg/kg/day for 30 days, compared to the untreated group

T1 sequence (P05370 whole entry): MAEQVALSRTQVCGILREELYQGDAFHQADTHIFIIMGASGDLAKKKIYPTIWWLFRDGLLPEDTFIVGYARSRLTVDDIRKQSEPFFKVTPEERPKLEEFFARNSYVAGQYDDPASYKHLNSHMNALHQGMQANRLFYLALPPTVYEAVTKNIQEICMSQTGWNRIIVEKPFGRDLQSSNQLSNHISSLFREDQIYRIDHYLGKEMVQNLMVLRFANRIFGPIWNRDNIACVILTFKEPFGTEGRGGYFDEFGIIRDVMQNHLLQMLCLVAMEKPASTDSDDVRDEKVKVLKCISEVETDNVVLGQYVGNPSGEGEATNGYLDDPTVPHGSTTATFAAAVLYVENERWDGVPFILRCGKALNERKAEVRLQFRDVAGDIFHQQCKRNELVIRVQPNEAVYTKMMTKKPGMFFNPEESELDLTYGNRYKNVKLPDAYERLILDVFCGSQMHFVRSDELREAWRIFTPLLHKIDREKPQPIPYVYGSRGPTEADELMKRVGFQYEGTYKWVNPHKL

| SMILES | E (DG-6-P activity) ([1]; 5 µM) | remaining activity at 5 µM ([1]; 5 µM) [%] | E (DG-6-P activity) ([1]; 25 µM) | remaining activity at 25 µM ([1]; 25 µM) [%] | Glucose concentration (Wistar rats [2]; blood collection time 5 hours) | reduction in blood glucose levels at the peak of hyperglycemia (Wistar rats [3]) | insulin secretion by pancreatic islet β-cells (pancreatic islet β-cells) | glycogen phosphorylase activity [4] | area of Langerhans islets and their number (Wistar rats [5]; 50 mg/kg/day for 30 days) | increase of the number of β-cells in the islets (Wistar rats [5]; [6]) | islet diameter increase (Wistar rats [5]; [6]) | morphological picture of the pancreas (Wistar rats [5]; 100 mg/kg/day for 30 days, compared to the untreated group) | time after glucose administration at which glucose indicators normalized (Wistar rats [2]) [h] | Glucose concentration (Wistar rats [2]; blood collection time 0 hours) | Glucose concentration (Wistar rats [2]; blood collection time 2 hours) |
| --- | --- | --- | --- | --- | --- | --- | --- | --- | --- | --- | --- | --- | --- | --- | --- |
| C=C(C)[C@@H]1CC[C@]2(COC(C)=O)CC[C@]3(C)[C@H](CC[C@@H]4[C@@]5(C)CC[C@H](OC(C)=O)C(C)(C)[C@@H]5CC[C@]43C)[C@@H]12 [3,28-betulin diacetate] | 0,158±0,002 | 75 | 0,111±0,008 | 52.8 | 8,51±0,52 mmol/l |  |  |  |  |  |  |  |  |  |  |
| CC1(C)CC[C@]23CC[C@]4(C)[C@H](CC[C@@H]5[C@@]6(C)CC[C@H](O)C(C)(C)[C@@H]6CC[C@]54C)[C@H]2[C@H]1OC3 [Allobetulin] | 0,151±0,004 | 72 | 0,103±0,002 | 49 |  |  |  |  |  |  |  |  |  |  |  |
| C=C(C)[C@@H]1CC[C@]2(CO)CC[C@]3(C)[C@H](CC[C@@H]4[C@@]5(C)CC[C@H](O)C(C)(C)[C@@H]5CC[C@]43C)[C@@H]12 [Betulin] | 0,149±0,004 | 71 | 0,100±0,002 | 47.6 | 6,01±0,78 mmol/l | 30-35% | statistically significantly increase | greatest inhibitory effect | tendency to increase | 25-35% | 10-15% | significant improvement | 4 | 10,82±0,31 mmol/l | 22,61±0,4 mmol/l |
| C=C(C)[C@@H]1CC[C@]2(C(=O)O)CC[C@]3(C)[C@H](CC[C@@H]4[C@@]5(C)CC[C@H](O)C(C)(C)[C@@H]5CC[C@]43C)[C@@H]12 [Betulinic acid] |  | 68.8 |  | 44.2 | 7,88±1,30* * mmol/l | 30-35% |  |  |  | 25-35% | 10-15% |  | 4 | 10,12±0,70 mmol/l | 25,64±1,50 mmol/l |
| C=C(C)[C@@H]1CC[C@]2(C(=O)O)CC[C@]3(C)[C@H](CC[C@@H]4[C@@]5(C)CCC(=O)C(C)(C)[C@@H]5CC[C@]43C)[C@@H]12 [Betulonic acid] | 0,148±0,003 | 70.3 | 0,109±0,007 | 51.9 | 6,52±0,7 mmol/l |  |  | greatest inhibitory effect |  |  |  |  |  | 10,32±0,77 mmol/l | 18,5±0,32 mmol/l |
| C=C(C)[C@@H]1CC[C@]2(C)CC[C@]3(C)[C@H](CC[C@@H]4[C@@]5(C)CC[C@H](O)C(C)(C)[C@@H]5CC[C@]43C)[C@@H]12 [Lupeol] | 0,143±0,005 | 68 | 0,113±0,009 | 53.6 | 9,38±0,75 mmol/l |  |  |  |  |  |  |  |  |  |  |

— patent EP3730147A1, “PREPARATION WITH HYPOGLYCEMIC EFFECT” (Instytut Biotechnologii i Badan Medycznych "Biolamed" SP. Z …, priority 2019, dated 2020)
